From US20240327463A1, “ANTIBACTERIAL PRODUCTS” (priority 2017, published 2024)
≈ marks a conversion by molar mass, not a printed value. Bridge positions count the residues as written; N and C are the ends. Square brackets hold non-standard residues; d marks the D form. Peptide text beside a SMILES is read from it. dNMeF = CN[C@H](Cc1ccccc1)C(=O)O; Chg = N[C@H](C(=O)O)C1CCCCC1; Nva = CCC[C@H](N)C(=O)O

Legend:
MRSA DR 42412 (sputum) = experiment: microbe, parasite or virus in culture; conditions: DR 42412 (sputum)
Procedure: (§1) For MIC testing all peptides were dissolved in DMSO (according to the method of L. L. Ling, et al., Nature 2015, 517, 455-459). Bacteria were grown on Mueller Hinton broth (oxoid). All incubations were at 37° C. Dilutions were carried out using Mueller Hinton. 100 μl of autoclaved Mueller Hinton broth was added to wells 2-12 on a 96-well plate. 200 μl of the peptide was added to well one at a concentration of 512 μg/ml. 100 μl of peptide in well one was taken up and pipetted into well two. The mixture was then mixed via pipetting before 100 μl was taken up and pipetted into well three. This process was repeated up to well 11. […] This was repeated three times. The 96-well plates were then incubated for 24 hours. The MIC was determined to be the lowest concentration at which there was no growth visible.

VRE ATCC 29212 = experiment: microbe, parasite or virus in culture; conditions: ATCC 29212
Procedure: as §1

MRSA ATCC 700699 = experiment: microbe, parasite or virus in culture; conditions: ATCC 700699
Procedure: as §1

VRE ATCC 700802 = experiment: microbe, parasite or virus in culture; conditions: ATCC 700802
Procedure: as §1

MRSA DM21455 (eye) = experiment: microbe, parasite or virus in culture; conditions: DM21455 (eye)
Procedure: as §1

MRSA ATCC 33591 = conditions: ATCC 33591
Procedure: as §1

| SMILES | MIC (MRSA) (MRSA ATCC 33591) | further results |
| --- | --- | --- |
| CCCCCCCCCC(=O)N[C@@H](Cc1c[nH]c2ccccc12)C(=O)N[C@H](CC(N)=O)C(=O)N[C@@H](CC(=O)O)C(=O)N[C@@H]1C(=O)NCC(=O)N[C@@H](CCCN)C(=O)N[C@@H](CC(=O)O)C(=O)N[C@H](C)C(=O)N[C@@H](CC(=O)O)C(=O)NCC(=O)N[C@H](CO)C(=O)N[C@@H]([C@H](C)CC(=O)O)C(=O)N[C@@H](CC(=O)c2ccccc2N)C(=O)O[C@@H]1C [Daptomycin, reference compound] | – | MIC (MRSA DR 42412 (sputum)): <0.0625 µg/mL; MIC (VRE ATCC 29212): 0.25 µg/mL (≈ 0.154 µM); MIC (MRSA ATCC 700699): 0.25 µg/mL (≈ 0.154 µM); MIC (VRE ATCC 700802): 0.25 µg/mL (≈ 0.154 µM); MIC (MRSA DM21455 (eye)): <0.0625 µg/mL |
| CCC[C@@H]1NC(=O)[C@H](CCCNC(=N)N)NC(=O)[C@H](NC(=O)[C@H](CO)NC(=O)[C@@H](NC(=O)[C@H](NC(=O)[C@@H](CCC(N)=O)NC(=O)[C@H](CCCNC(=N)N)NC(=O)[C@@H](NC(=O)[C@@H](Cc2ccccc2)NC)[C@@H](C)CC)[C@H](C)CC)[C@@H](C)CC)[C@H](C)OC(=O)[C@H]([C@@H](C)CC)NC1=O [Compound 49, Arg3-Arg9-Nva10-teixobactin] (H-[dNMeF]IR[dQ][dI]IS[dT]R[Nva]I; ester 8-C) | 0.5 µg/mL (≈ 0.373 µM) | – |
| CC[C@@H](C)[C@@H](NC(=O)[C@@H](C)NC(=O)[C@H](CO)NC(=O)[C@@H](NC(=O)[C@@H](Cc1ccccc1)NC)[C@@H](C)CC)C(=O)N[C@H](C(=O)N[C@@H](CO)C(=O)N[C@H]1C(=O)N[C@@H](C)C(=O)N[C@@H](CCCNC(=N)N)C(=O)N[C@@H]([C@@H](C)CC)C(=O)O[C@H]1C)[C@@H](C)CC [Compound 10] (H-[dNMeF]IS[dA][dI]IS[dT]ARI; ester 8-C) | – | MIC (MRSA*) (MRSA ATCC 33591): 2 to 4 µg/mL |
| CCC[C@@H]1NC(=O)[C@H](CCCNC(=N)N)NC(=O)[C@H](NC(=O)[C@H](CO)NC(=O)[C@@H](NC(=O)[C@H](NC(=O)[C@@H](CCCNC(=N)N)NC(=O)[C@H](CO)NC(=O)[C@@H](NC(=O)[C@@H](Cc2ccccc2)NC)[C@@H](C)CC)[C@H](C)CC)[C@@H](C)CC)[C@H](C)OC(=O)[C@H]([C@@H](C)CC)NC1=O [Compound 50, D-Arg4-Arg9-Nva10-teixobactin] (H-[dNMeF]IS[dR][dI]IS[dT]R[Nva]I; ester 8-C) | 0.5 µg/mL (≈ 0.384 µM) | – |
| CC[C@@H](C)[C@@H](NC(=O)[C@@H](CCC(N)=O)NC(=O)[C@H](C)NC(=O)[C@@H](NC(=O)[C@@H](Cc1ccccc1)NC)[C@@H](C)CC)C(=O)N[C@H](C(=O)N[C@@H](CO)C(=O)N[C@H]1C(=O)N[C@@H](C)C(=O)N[C@@H](CCCNC(=N)N)C(=O)N[C@@H]([C@@H](C)CC)C(=O)O[C@H]1C)[C@@H](C)CC [Compound 9] (H-[dNMeF]IA[dQ][dI]IS[dT]ARI; ester 8-C) | – | MIC (MRSA*) (MRSA ATCC 33591): 1 to 2 µg/mL |
| CCC[C@@H]1NC(=O)[C@H](C)NC(=O)[C@H](NC(=O)[C@H](CO)NC(=O)[C@@H](NC(=O)[C@H](NC(=O)[C@@H](CCC(N)=O)NC(=O)[C@H](CO)NC(=O)[C@@H](NC(=O)[C@@H](Cc2ccccc2)NC)[C@@H](C)CC)[C@H](C)CC)[C@@H](C)CC)[C@H](C)OC(=O)[C@H]([C@@H](C)CC)NC1=O [Compound 44, Nva10-teixobactin] | 0.5 µg/mL (≈ 0.421 µM) | – |
| CC[C@@H](C)[C@@H](NC(=O)[C@@H](CCC(N)=O)NC(=O)[C@H](CCCNC(=N)N)NC(=O)[C@@H](NC(=O)[C@@H](Cc1ccccc1)NC)[C@@H](C)CC)C(=O)N[C@H](C(=O)N[C@@H](CO)C(=O)N[C@H]1C(=O)N[C@@H](C)C(=O)N[C@@H](C2CCCCC2)C(=O)N[C@@H]([C@@H](C)CC)C(=O)O[C@H]1C)[C@@H](C)CC [Compound 37, Arg3-Chg10-teixobactin] | 0.5 µg/mL (≈ 0.386 µM) | – |
| CC[C@@H](C)[C@@H](NC(=O)[C@@H](CCCNC(=N)N)NC(=O)[C@H](CO)NC(=O)[C@@H](NC(=O)[C@@H](Cc1ccccc1)NC)[C@@H](C)CC)C(=O)N[C@H](C(=O)N[C@@H](CO)C(=O)N[C@H]1C(=O)N[C@@H](C)C(=O)N[C@@H](C2CCCCC2)C(=O)N[C@@H]([C@@H](C)CC)C(=O)O[C@H]1C)[C@@H](C)CC [Compound 38, D-Arg4-Chg10-teixobactin] | 0.5 µg/mL (≈ 0.398 µM) | – |
| CC[C@@H](C)[C@@H](NC(=O)[C@@H](CCCNC(=N)N)NC(=O)[C@H](CO)NC(=O)[C@@H](NC(=O)[C@@H](Cc1ccccc1)NC)[C@@H](C)CC)C(=O)N[C@H](C(=O)N[C@@H](CO)C(=O)N[C@H]1C(=O)N[C@@H](C)C(=O)N[C@@H](Cc2ccccc2)C(=O)N[C@@H]([C@@H](C)CC)C(=O)O[C@H]1C)[C@@H](C)CC [Compound 52, D-Arg4-Phe10-teixobactin] | 2 µg/mL (≈ 1.58 µM) | – |

Continued, in another order:

| MIC (MRSA) (MRSA ATCC 33591) | SMILES | further results |
| --- | --- | --- |
| 0.5 µg/mL (≈ 0.362 µM) | CC[C@@H](C)[C@@H](NC(=O)[C@@H](CCC(N)=O)NC(=O)[C@H](CCCNC(=N)N)NC(=O)[C@@H](NC(=O)[C@@H](Cc1ccccc1)NC)[C@@H](C)CC)C(=O)N[C@H](C(=O)N[C@@H](CO)C(=O)N[C@H]1C(=O)N[C@@H](CCCNC(=N)N)C(=O)N[C@@H](C2CCCCC2)C(=O)N[C@@H]([C@@H](C)CC)C(=O)O[C@H]1C)[C@@H](C)CC [Compound 41, Arg3-Arg9-Chg10-teixobactin] (H-[dNMeF]IR[dQ][dI]IS[dT]R[Chg]I; ester 8-C) | – |
| 1 µg/mL (≈ 0.755 µM) | CC[C@@H](C)[C@@H](NC(=O)[C@@H](CCCNC(=N)N)NC(=O)[C@H](CCCNC(=N)N)NC(=O)[C@@H](NC(=O)[C@@H](Cc1ccccc1)NC)[C@@H](C)CC)C(=O)N[C@H](C(=O)N[C@@H](CO)C(=O)N[C@H]1C(=O)N[C@@H](C)C(=O)N[C@@H](C2CCCCC2)C(=O)N[C@@H]([C@@H](C)CC)C(=O)O[C@H]1C)[C@@H](C)CC [Compound 40, Arg3-D-Arg4-Chg10-teixobactin] (H-[dNMeF]IR[dR][dI]IS[dT]A[Chg]I; ester 8-C) | – |
| 4 µg/mL (≈ 3.37 µM) | CC[C@@H](C)[C@@H](NC(=O)[C@@H](CCCNC(=N)N)NC(=O)[C@H](CO)NC(=O)[C@@H](NC(=O)[C@@H](Cc1ccccc1)NC)[C@@H](C)CC)C(=O)N[C@H](C(=O)N[C@@H](CO)C(=O)N[C@H]1C(=O)N[C@@H](C)C(=O)N[C@@H](C)C(=O)N[C@@H]([C@@H](C)CC)C(=O)O[C@H]1C)[C@@H](C)CC [Compound 53, D-Arg4-Ala10-teixobactin] | – |
| 0.5 µg/mL (≈ 0.393 µM) | CCC[C@@H]1NC(=O)[C@H](CCCNC(=N)N)NC(=O)[C@H](NC(=O)[C@H](CO)NC(=O)[C@@H](NC(=O)[C@H](NC(=O)[C@@H](CCC(N)=O)NC(=O)[C@H](CO)NC(=O)[C@@H](NC(=O)[C@@H](Cc2ccccc2)NC)[C@@H](C)CC)[C@H](C)CC)[C@@H](C)CC)[C@H](C)OC(=O)[C@H]([C@@H](C)CC)NC1=O [Compound 47, Arg9-Nva10-teixobactin] (H-[dNMeF]IS[dQ][dI]IS[dT]R[Nva]I; ester 8-C) | – |
